{"source": "patent US8008071B2", "about": "(University of South Florida, priority 1999, dated 2011)", "key": {"[1]": {"system": "glucose-sensing element", "assay": "Specificity of the glucose-sensing element for hexoses"}, "[2]": {"system": "PKCβII mRNA", "assay": "RT-PCR of PKCβII mRNA in synchronized A10 cells", "format": "cell-based, rat", "conditions": "for PERCENT OF PKCβII mRNA POST-GLUCOSE TREATMENT: inhibitor added 30 minutes prior to 25 mM glucose, 5.5 mM glucose control = 100%; for PERCENT OF PKCβII mRNA POST-GLUCOSE TREATMENT / effect of inhibitor on glucose-induced destabilization of PKCβII mRNA: synchronized A10 cells; for effect of glucose analogs on PKCβII mRNA: 25 mM analog; for effect of inhibitor on glucose-induced destabilization of PKCβII mRNA: 30 minutes pre-incubation, then 25 mM glucose", "protocol": "(§1) Reverse Transcriptase-Polymerase Chain Reaction. […] The upstream sense primer corresponded to the C4 kinase domain common to both PKCβI and PKCβII (5′ […] 3′) [SEQ ID NO:4] and the downstream antisense primer was specific for PKCβI (5′ […] 3′) [SEQ ID NO:5] (Chalfant et al., 1995, pp.13326-13332). These primers detect inclusion of the PKCβII exon in the mature mRNA as well as PKCβI mRNA. Sense and antisense primers for β-actin (#5402-3) were obtained from Clonetech. PCR was performed using ampliTaq Gold DNA polymerase from PERKIN ELMER (#N808-0240) on 10% of the reverse transcriptase reaction product. Following 35 cycles of amplification in a BIOMETRA Trioblock thermocycler (PKCβI and -βII: 95° C., 30 sec; 64° C., 2 min for 35 cycles; and for β-actin: 94° C., 1 min; 58° C., 1 min; and 72° C., 3 min for 35 cycles), 25% of the PCR reaction was resolved on a 1.2% agarose gel. Bands were observed under UV light and photographed.\nPrimers were designed for the upstream common kinase region (C4) (-sense primer) and the PKCβI exon (-antisense primer) for simultaneous amplification of both PKCβI and -βII messages by RT-PCR."}, "[3]": {"system": "PKCβ(I+II) mRNA", "assay": "In vitro RNA stability assay with post-nuclear extracts of A10 cells", "parameters": "species or system rat", "conditions": "50 mM EDTA added to the reaction mix", "method": "RNA stability assay. To prepare post-nuclear extracts (see, for example, Wager, R. E. and R. K. Assoian. 1990. A phorbol ester-regulated ribonuclease system controlling transforming growth factor BI gene expression in hematopoietic cells. Mol. Cell. Biol. 10:5983-5990), synchronized A1O cells, re-initiated to proliferate with DMEM+10% FBS were treated with either 5.5 mM or 25 mM glucose for 2 h to 24 h, then washed and collected in ice-cold 1× DPBS. The cellular pellet was re-suspended in extract buffer containing 0.01M Tris-HCl, 0.15M NaCl, 0.5% Nonidet P-40, leupeptin (10 μg/ml) and aprotonin (10 μg/ml) incubated on ice for 10 minutes and carefully layered over extract buffer containing 24% sucrose. Samples were centrifuged over a sucrose gradient at 1 0,000xg for 20 minutes at 4° C. Post-nuclear extract was separated, stored on ice and aliquots taken for protein concentration using Bradford protein assay (see Bradford, M. M. 1976. A rapid and sensitive method for the quantitation of microgram quantities of protein utilizing the principle of protein-dye bindingno title. Anal. Biochem. 72:248-254). Total RNA (10 μg) from A10 cells, was incubated with 2.7% (vol/vol) of the post-nuclear extracts for 30 minutes at 4° C. in 50 μl (final volume) of extract buffer. When specifically noted, 50 mM EDTA was added to the reactions as a control to inhibit nuclease activity. […]"}, "[4]": {"system": "rat VSMC", "conditions": "cited from earlier work"}, "[5]": {"system": "PKCβI mRNA", "assay": "RT-PCR of PKCβI mRNA in primary human aortic smooth muscle cells (AoSMC)", "format": "cell-based", "conditions": "100 nM insulin, 4 hours", "protocol": "(§2) Cells were grown to >90% confluency and medium was changed every 5 days.\nas §1"}, "[6]": {"system": "PKCβII mRNA", "assay": "RT-PCR of PKCβII mRNA in primary human aortic smooth muscle cells (AoSMC)", "format": "cell-based", "conditions": "4 hours; for effect on PKCβII mRNA: 100 nM insulin", "protocol": "as §2, §1"}, "[7]": {"system": "PKCβ promoter", "assay": "PKCβ promoter-CAT deletion constructs transiently transfected into A10 cells", "format": "cell-based, rat", "conditions": "100 nM TPA", "protocol": "Calcium-phosphate transfections. For promoter studies, A10 cells were grown and synchronized in 6-well plates. Three hours prior to transfections, fresh medium (DMEM containing 10% fetal bovine serum) was substituted on A10 cells. pβG or pβG-PKCβII expression vectors were transfected with the calcium-phosphate-DNA precipitate. Following overnight incubation, calcium phosphate-DNA precipitate was washed off with 1× Dulbecco's phosphate buffered saline (DPBS) and replaced with fresh medium. For stably-transfected cell selection, 0.7 mg/ml G-418 was added to the media. It was changed every 4 days and 10-14 days later, the colonies were pooled and maintained in DMEM (10% FBS) with 0.2 mg/ml G-418.\nSince PKCβ is a low copy gene, nuclear run-on assays were not a practical approach to examine transcriptional regulation. […] PKCβ promoter constructs with successive deletions of the 5′ region cloned in front of a promoterless chloramphenicol acetyltransferase (CAT) as the reporter gene were transiently transfected into A10 cells (FIG. 19). pSV-β-Galactosidase was co-transfected with the CAT constructs to normalize the efficiency of transfection. Simultaneous positive and negative controls were carried out as described previously.\nTranscriptional repression of PKCβ promoter by transcription factors in response to high glucose was anticipated. […]"}, "[8]": {"biological_target": "PP2B", "conditions": "cited from earlier work"}, "[9]": {"biological_target": "PP2A", "conditions": "cited from earlier work"}, "[10]": {"system": "IL-3 3′-UTR ARE transcript", "conditions": "cited from earlier work"}, "[11]": {"biological_target": "PP1", "conditions": "cited from earlier work"}, "[12]": {"system": "PKCβI mRNA", "assay": "RT-PCR of PKCβI mRNA in synchronized A10 cells", "format": "cell-based, rat", "conditions": "4 hours", "protocol": "as §1\nThus, the PKCβII transcript contains the PKCβI exon with the poly A tail and a common 3′ untranslated region (FIG. 25). Inclusion of the alternatively spliced exon encodes a stop codon such that the PKCβI exon facilitates poly-adenylation but the exon is not translated, thereby generating PKCβII protein. […] Although, this assay is semi-quantitative, the ration of PKCβII to PKCβI mRNA was about 2 to 1."}, "[13]": {"system": "PKCβ(I+II) mRNA", "assay": "Northern blot of steady state PKCβ(I+II) mRNA in synchronized A10 cells", "format": "cell-based, rat", "conditions": "25 mM mannitol osmotic control, 15-18 hours", "protocol": "Cell culture. […] Cells were grown to >90% confluency and media was changed every 4 days. Cell synchronization was achieved by serum deprivation (0.5% FBS) for 48 hours (see, for example, Ross, R., C. Nist, B. Kariya, M. J. Rivest, E. Raines, and J. Callis. 1978. Physiological quiescence in plasma-derived serum: Influence of platelet derived growth factor on cell growth in culture. J. Cell. Physiol. 97:497-508).\nIsolation of RNA and Northern Blot Analysis. Total cellular RNA was isolated from 100-mm plates using Tri-Reagent (Molecular Research Center, Inc.). […] Ethidium bromide was added in the loading buffer for visualization and quantitation of 18S and 28S RNA. After fractionation, the integrity and loading of RNA was assessed under UV light (23,24). […] Membranes were washed with high stringency conditions (1×SSC, 0.1% SDS for 15 minutes at 42° C. followed by 0.11× SSC, 0.1% SDS for 15 minutes at 42° C.), and quantitated using Molecular Dynamics Phosphoimaging System. In experiments, where mentioned, membranes were exposed to X-ray film and the autoradiograms were quantitated densitometrically.\nCells incubated with 25 mM mannitol were used as osmotic controls. Total RNA was extracted and the mRNA transcript levels were detected using a full length PKCβ cDNA probe which would cross-hybridize with both PKCβI and PKCβII mRNAs. […]"}}, "note": "pKi: −log10 of the molar value. Entries after “also recorded” stand apart in the source; their conditions may differ.", "data": [{"compound": "O=C(CO)[C@@H](O)[C@H](O)[C@H](O)CO", "note": "[fructose]", "values": [{"measurement": "destabilization of the glucose-sensing element", "setting": "[1]", "value": "do not destabilize"}]}, {"compound": "N#C/C(=C/c1ccc(O)c(O)c1)C(=O)NCc1ccccc1", "note": "[AG-490]", "values": [{"measurement": "PERCENT OF PKCβII mRNA POST-GLUCOSE TREATMENT", "setting": "[2]", "value": 5, "unit": "%"}]}, {"compound": "O=c1cc(N2CCOCC2)oc2c(-c3ccccc3)cccc12", "note": "[LY 294002]", "values": [{"measurement": "PERCENT OF PKCβII mRNA POST-GLUCOSE TREATMENT", "setting": "[2]", "value": 90, "unit": "%"}]}, {"compound": "CO[C@@H]1[C@H](N(C)C(=O)c2ccccc2)C[C@H]2O[C@]1(C)n1c3ccccc3c3c4c(c5c6ccccc6n2c5c31)C(=O)NC4", "note": "[CG 41251]", "values": [{"measurement": "PERCENT OF PKCβII mRNA POST-GLUCOSE TREATMENT", "setting": "[2]", "value": 100, "unit": "%"}]}, {"compound": "O=C(O)CN(CCN(CC(=O)O)CC(=O)O)CC(=O)O", "note": "[EDTA]", "values": [{"measurement": "degradation of RNA by post-nuclear extract", "setting": "[3]", "value": "No degradation"}]}, {"compound": "CO[C@H]1C[C@@H]2CC[C@@H](C)[C@@](O)(O2)C(=O)C(=O)N2CCCC[C@H]2C(=O)O[C@H]([C@H](C)C[C@@H]2CC[C@@H](O)[C@H](OC)C2)CC(=O)[C@H](C)/C=C(\\C)[C@@H](O)[C@@H](OC)C(=O)[C@H](C)C[C@H](C)/C=C/C=C/C=C/1C", "note": "[Rapamycin]", "values": [{"measurement": "PERCENT OF PKCβII mRNA POST-GLUCOSE TREATMENT", "setting": "[2]", "value": 5, "unit": "%"}]}, {"compound": "COc1cccc(-c2cc(=O)c3ccccc3o2)c1N", "note": "[PD 98059]", "values": [{"measurement": "PERCENT OF PKCβII mRNA POST-GLUCOSE TREATMENT", "setting": "[2]", "value": 5, "unit": "%"}]}, {"compound": "O=C1NC(=O)c2cc(Nc3ccc(F)cc3)c(Nc3ccc(F)cc3)cc21", "note": "[CGP53353]", "values": [{"measurement": "glucose-stimulated rat VSMC proliferation", "setting": "[4]", "value": "inhibits"}]}, {"compound": "O=CC[C@@H](O)[C@H](O)[C@H](O)CO", "note": "[2-DOG, 2-deoxyglucose]", "values": [{"measurement": "effect of glucose analogs on PKCβII mRNA", "setting": "[2]; 4 hours", "value": "destabilized"}]}, {"compound": "CO[C@H]1[C@@H](OC)C[C@H](C)[C@@H](OC)C2=CC(=O)C=C(NC(=O)/C(C)=C/C=C\\[C@H](OC)[C@@H](OC(N)=O)/C(C)=C/[C@@H]1C)C2=O", "note": "[Herbimycin A]", "values": [{"measurement": "effect of inhibitor on glucose-induced destabilization of PKCβII mRNA", "setting": "[2]", "value": "prevented"}, {"measurement": "PERCENT OF PKCβII mRNA POST-GLUCOSE TREATMENT", "setting": "[2]", "value": 90, "unit": "%"}]}, {"compound": "insulin: hormone that promotes glucose uptake", "values": [{"measurement": "effect on PKCβI mRNA", "setting": "[5]", "value": "did not significantly affect"}, {"measurement": "effect on PKCβI mRNA", "setting": "[5]; listed as Insulin", "value": "did not destabilize"}, {"measurement": "effect on PKCβII mRNA", "setting": "[6]", "value": "did not significantly affect"}, {"measurement": "effect on PKCβII mRNA", "setting": "[6]; listed as Insulin", "value": "did not destabilize"}, {"measurement": "PKCβII mRNA diminished", "setting": "[6]; 25 mM glucose+100 nM insulin", "value": 60, "unit": "%"}]}, {"compound": "CO[C@@H]([C@H](O)[C@H](O)CO)[C@@H](O)C=O", "note": "[3-O-Methylglucose, 3-O-methylglucose]", "values": [{"measurement": "effect of glucose analogs on PKCβII mRNA", "setting": "[2]; 4 hours", "value": "destabilized"}]}, {"compound": "CCCCCCCCCCCCCC(=O)O[C@@H]1[C@@H](C)[C@@]2(O)[C@@H](C=C(CO)C[C@]3(O)C(=O)C(C)=C[C@@H]23)[C@@H]2C(C)(C)[C@]12OC(C)=O", "note": "[TPA, 12-O-tetradecanoylphorbol-13-acetate]", "values": [{"measurement": "increase of promoter activity in all constructs", "setting": "[7]", "value": "ten-fold"}]}, {"compound": "C=C1[C@@H](O)[C@@H]2O[C@]3(CC[C@H](/C=C/[C@@H](C)[C@@H]4CC(C)=C[C@@]5(O[C@H](C[C@@](C)(O)C(=O)O)CC[C@H]5O)O4)O3)CC[C@H]2O[C@@H]1[C@@H](O)C[C@H](C)[C@H]1O[C@@]2(CCCCO2)CC[C@H]1C", "note": "[Okadaic acid]", "values": [{"measurement": "Ki", "setting": "[8]", "value": "less potent inhibitor"}, {"measurement": "pKi", "setting": "[9]", "value": 9.70}, {"measurement": "effect on mRNA stability in GFP reporter system", "setting": "[10]", "value": "mRNA stabilizing compound"}, {"measurement": "pKi", "setting": "[11]", "value": 7.70}, {"measurement": "effect of inhibitor on glucose-induced destabilization of PKCβII mRNA", "setting": "[2]", "value": "interfered; also recorded: inhibited the destabilization"}]}, {"compound": "OC[C@@H](O)[C@@H](O)[C@H](O)[C@H](O)CO", "note": "[mannitol]", "values": [{"measurement": "levels of PKCβI mRNA", "setting": "[12]; 5.5 mM glucose+19.5 mM mannitol (osmotic control)", "value": "remained unchanged"}, {"measurement": "levels of PKCβII mRNA", "setting": "[2]; 5.5 mM glucose+19.5 mM mannitol (osmotic control), 4 hours", "value": "did not; also recorded: remained unchanged"}, {"measurement": "destabilization of the glucose-sensing element", "setting": "[1]", "value": "do not destabilize"}, {"measurement": "PKCβ(I+II) mRNA levels", "setting": "[13]", "value": "remained unchanged"}]}, {"compound": "C[C@@H]1C[C@@H]([C@H](O)CC2CC(=O)NC(=O)C2)C(=O)[C@@H](C)C1", "note": "[Cycloheximide]", "values": [{"measurement": "effect of inhibitor on glucose-induced destabilization of PKCβII mRNA", "setting": "[2]", "value": "did not block"}, {"measurement": "PERCENT OF PKCβII mRNA POST-GLUCOSE TREATMENT", "setting": "[2]", "value": 10, "unit": "%"}]}, {"compound": "N[C@H]1C(O)O[C@H](CO)[C@@H](O)[C@@H]1O", "note": "(stereo partly shown) [Glucosamine]", "values": [{"measurement": "effect on PKCβI mRNA", "setting": "[12]; 10 mM glucosamine in the presence of 5.5 mM glucose", "value": "did not destabilize; also recorded: did not affect"}, {"measurement": "effect on PKCβII mRNA", "setting": "[2]; 10 mM glucosamine in the presence of 5.5 mM glucose, 4 hours", "value": "did not destabilize; also recorded: did not affect"}]}]}
